Experimental data as given in the NIST ThermoML archive (doi:10.1021/je900468u).

Tests used:
[1] = xn = mol fraction of the nth substance listed; conditions: 101 kPa, Liquid; for speed of sound: Pulse-echo method
[2] = refractive index (Na D-line) (dimensionless); xn = mol fraction of the nth substance listed; conditions: 101 kPa, Liquid, Standard Abbe refractometry

c1ccccc1 [benzene] + C1CCCCC1
x2 = 0
Conditions | mass density, [1] [kg/m3] | refractive index, [2] | speed of sound, [1] [m/s]
283.15 K | 889.5 | 1.50765 | 1371
298.15 K | 873.9 | 1.49774 | 1299

c1ccccc1 [benzene] + C1CCCCCCC1
298.15 K, x2 = 0
Conditions | mass density [kg/m3] | refractive index | speed of sound [m/s]
[1] | 873.6 | – | 1299
[2] | – | 1.49774 | –

c1ccccc1 [benzene] + CC1CCCCC1
x2 = 0
Conditions | mass density, [1] [kg/m3] | refractive index, [2] | speed of sound, [1] [m/s]
283.15 K | 889.5 | 1.50765 | 1371
298.15 K | 873.6 | 1.49774 | 1299

C1CCCCC1 [cyclohexane] + CCc1ccccc1
x1 = 1
Conditions | mass density, [1] [kg/m3] | refractive index, [2] | speed of sound, [1] [m/s]
283.15 K | 787.8 | 1.43193 | 1329
298.15 K | 773.9 | 1.4236 | 1255

C1CCCCC1 [cyclohexane] + Cc1ccccc1
Conditions | mass density, [1] [kg/m3] | refractive index, [2] | speed of sound, [1] [m/s]
283.15 K, x1 = 0.0484 | 871 | 1.4988 | 1365
283.15 K, x1 = 0.099 | 865.8 | 1.49476 | 1360
283.15 K, x1 = 0.1997 | 855.8 | 1.48684 | 1351
283.15 K, x1 = 0.2973 | 846.1 | 1.47919 | 1344
283.15 K, x1 = 0.3975 | 836.6 | 1.47167 | 1337
283.15 K, x1 = 0.4999 | 827.3 | 1.46416 | 1331
283.15 K, x1 = 0.5881 | 819.6 | 1.45803 | 1328
283.15 K, x1 = 0.699 | 810.3 | 1.45054 | 1325
283.15 K, x1 = 0.7985 | 802.4 | 1.44407 | 1324
283.15 K, x1 = 0.8961 | 795.1 | 1.43794 | 1325
283.15 K, x1 = 0.9497 | 791.3 | 1.43489 | 1327
283.15 K, x1 = 1 | – | – | 1329
298.15 K, x1 = 0.0484 | 857.2 | 1.49021 | 1300
298.15 K, x1 = 0.099 | 852 | 1.48614 | 1294
298.15 K, x1 = 0.1997 | 842 | 1.47829 | 1285
298.15 K, x1 = 0.2973 | 832.3 | 1.47073 | 1276
298.15 K, x1 = 0.3975 | 822.8 | 1.4632 | 1269
298.15 K, x1 = 0.4999 | 813.4 | 1.4558 | 1263
298.15 K, x1 = 0.5881 | 805.7 | 1.44964 | 1258
298.15 K, x1 = 0.699 | 796.4 | 1.44216 | 1254
298.15 K, x1 = 0.7985 | 788.4 | 1.4358 | 1252
298.15 K, x1 = 0.8961 | 781.1 | 1.42971 | 1252
298.15 K, x1 = 0.9497 | 777.4 | 1.42663 | 1253
298.15 K, x1 = 1 | 773.9 | 1.4236 | 1255

C1CCCCC1 [cyclohexane] + c1ccccc1
Conditions | mass density, [1] [kg/m3] | refractive index, [2] | speed of sound, [1] [m/s]
283.15 K, x1 = 0.047 | 882.7 | 1.50275 | 1364
283.15 K, x1 = 0.0984 | 875.6 | 1.49741 | 1358
283.15 K, x1 = 0.1978 | 862.4 | 1.48772 | 1346
283.15 K, x1 = 0.2968 | 850.4 | 1.47886 | 1338
283.15 K, x1 = 0.3929 | 839.4 | 1.47071 | 1331
283.15 K, x1 = 0.4996 | 828.3 | 1.46247 | 1326
283.15 K, x1 = 0.6003 | 818.8 | 1.45532 | 1323
283.15 K, x1 = 0.7022 | 809.9 | 1.44865 | 1322
283.15 K, x1 = 0.7963 | 802.3 | 1.44324 | 1322
283.15 K, x1 = 0.8954 | 794.9 | 1.43781 | 1325
283.15 K, x1 = 0.9501 | 791.2 | 1.43453 | 1327
283.15 K, x1 = 1 | 787.8 | 1.43193 | 1329
298.15 K, x1 = 0.047 | 867.1 | 1.49298 | 1293
298.15 K, x1 = 0.0984 | 859.9 | 1.48771 | 1286
298.15 K, x1 = 0.1978 | 847 | 1.47808 | 1275
298.15 K, x1 = 0.2968 | 835.2 | 1.46965 | 1266
298.15 K, x1 = 0.3929 | 824.5 | 1.46157 | 1259
298.15 K, x1 = 0.4996 | 813.6 | 1.45354 | 1254
298.15 K, x1 = 0.6003 | 804.2 | 1.44654 | 1251
298.15 K, x1 = 0.7022 | 795.5 | 1.44001 | 1249
298.15 K, x1 = 0.7963 | 788 | 1.43431 | 1249
298.15 K, x1 = 0.8954 | 780.8 | 1.42891 | 1250
298.15 K, x1 = 0.9501 | 777.2 | 1.42611 | 1252
298.15 K, x1 = 1 | 773.9 | 1.4236 | 1255
